From the supplement of paper PMC13380429
± gives the standard deviation of the averaged measurements.

How the values were obtained:
Conditions in all cases: 72 h
HepG2 [1] = test: drug sensitivity score (DSS) for viability; higher = more toxic; extreme values may be limits of the assay
Calu-3 [2] = test: as above
Caco-2 [3] = test: as above
U2OS [4] = test: as above
Vero E6 [5] = test: as above
HepG2 [6] = test: cell viability relative to DMSO; higher = less toxic
Calu-3 [7] = test: as above
Caco-2 [8] = test: as above
U2OS [9] = test: as above
Vero E6 [10] = test: as above
HepG2 [11] = test: relative viability EC50 (midpoint between 100% and the lowest measured viability); higher = less toxic
Calu-3 [12] = test: as above
Caco-2 [13] = test: as above
U2OS [14] = test: as above
Vero E6 [15] = test: as above

Compound | drug sensitivity score (HepG2 [1]) | drug sensitivity score (Calu-3 [2]) | drug sensitivity score (Caco-2 [3]) | drug sensitivity score (U2OS [4]) | drug sensitivity score (Vero E6 [5]) | cell viability (HepG2 [6]; 1 nM) | cell viability (HepG2 [6]; 10 nM) | cell viability (HepG2 [6]; 100 nM) | cell viability (HepG2 [6]; 1000 nM) | cell viability (HepG2 [6]; 10000 nM) | cell viability (Calu-3 [7]; 1 nM) | cell viability (Calu-3 [7]; 10 nM) | cell viability (Calu-3 [7]; 100 nM) | cell viability (Calu-3 [7]; 1000 nM) | cell viability (Calu-3 [7]; 10000 nM) | cell viability (Caco-2 [8]; 1 nM) | cell viability (Caco-2 [8]; 10 nM) | cell viability (Caco-2 [8]; 100 nM) | cell viability (Caco-2 [8]; 1000 nM) | cell viability (Caco-2 [8]; 10000 nM) | cell viability (U2OS [9]; 1 nM) | cell viability (U2OS [9]; 10 nM) | cell viability (U2OS [9]; 100 nM) | cell viability (U2OS [9]; 1000 nM) | cell viability (U2OS [9]; 10000 nM) | cell viability (Vero E6 [10]; 1 nM) | cell viability (Vero E6 [10]; 10 nM) | cell viability (Vero E6 [10]; 100 nM) | cell viability (Vero E6 [10]; 1000 nM) | cell viability (Vero E6 [10]; 10000 nM) | relative viability EC50 (HepG2 [11]) | relative viability EC50 (Calu-3 [12]) | relative viability EC50 (Caco-2 [13]) | relative viability EC50 (U2OS [14]) | relative viability EC50 (Vero E6 [15])
CCn1ccnc1CC1COc2ccccc2O1 (stereo not given) [imiloxan] | 0 | 0 | 0 | 0 | 0 | 90.6% | 91.6% | 94.5% | 93.2% | 116% | 97.9% | 98.5% | 99.7% | 107% | 94.4% | 106% | 87.6% | 92.9% | 104% | 102% | 101% | 98.4% | 99.2% | 101% | 104% | 92.5% | 99.8% | 95.9% | 90.7% | 102% | > 10 µM | > 10 µM | > 10 µM | > 10 µM | > 10 µM
C1=Cc2cccc(OCC3CNCCO3)c2C1 (stereo not given) [indeloxazine] | 0 | 0 | 2.3 | 0 | 0 | 105% | 111% | 104% | 93.1% | 91.7% | 105% | 93.8% | 104% | 97.1% | 97.8% | 101% | 94.2% | 86.4% | 88.9% | 90.3% | 95.2% | 97.8% | 101% | 99.3% | 96.8% | 104% | 106% | 102% | 102% | 93.8% | > 10 µM | > 10 µM | > 10 µM | > 10 µM | > 10 µM
O=C(O)CCCN1C(=O)c2cccc3cccc(c23)C1=O [isodibut] | 0 | 0 | 0 | 0 | 0 | 96.1% | 95.8% | 104% | 105% | 98.9% | 99.1% | 97.8% | 96.9% | 94.8% | 114% | 105% | 90.9% | 93.6% | 98.6% | 95.4% | 99.3% | 96.6% | 97.7% | 97.6% | 95.7% | 97% | 97.9% | 103% | 101% | 99.1% | > 10 µM | > 10 µM | > 10 µM | > 10 µM | > 10 µM
O=C(/C=C/c1ccc(O)cc1)c1ccc(O)cc1O [isoliquiritigenin] | 0 | 0 | 0.2 | 0 | 0 | 102% | 107% | 91.9% | 101% | 96.5% | 103% | 93.7% | 107% | 107% | 112% | 102% | 92.1% | 95.6% | 92.2% | 86.4% | 97.3% | 99.7% | 103% | 98.2% | 94.9% | 99.4% | 107% | 93.6% | 104% | 113% | > 10 µM | > 10 µM | > 10 µM | > 10 µM | > 10 µM
CCN(C(=O)c1c(O)c2c(Cl)cccc2n(C)c1=O)c1ccccc1 [laquinimod] | 0 | 0 | 0 | 0 | 0 | 102% | 98.6% | 103% | 93.4% | 92.8% | 110% | 87.9% | 91.5% | 108% | 102% | 90.3% | 88.5% | 98.2% | 106% | 91.5% | 96.9% | 98.9% | 99.2% | 97.6% | 96.9% | 99.8% | 99.9% | 92.8% | 92.5% | 91.4% | > 10 µM | > 10 µM | > 10 µM | > 10 µM | > 10 µM
CC(C)(C)NC[C@H](O)COc1cccc2c1CCCC2=O [levobunolol] | 0 | 0 | 0 | 0 | 0 | 100 ± 4.1% | 95.8 ± 2.8% | 112 ± 2% | 94.8 ± 4.3% | 97.9 ± 2.4% | 99.2 ± 9.6% | 102 ± 0.99% | 93.9 ± 3.1% | 103 ± 3.2% | 104.25 ± 0.071% | 88 ± 1.8% | 94.8 ± 5.9% | 96 ± 4.7% | 101.3 ± 0.64% | 97.2 ± 1.1% | 97.15 ± 0.78% | 102 ± 2% | 101.5 ± 0.21% | 101.3 ± 0.78% | 103 ± 0.21% | 105 ± 6.1% | 94.6 ± 2.8% | 95.6 ± 5.7% | 90.5 ± 3.1% | 101 ± 3.8% | > 10 µM | > 10 µM | > 10 µM | > 10 µM | > 10 µM
CC#CCn1c(N2CCC[C@@H](N)C2)nc2c1c(=O)n(Cc1nc(C)c3ccccc3n1)c(=O)n2C [linagliptin] | 0 | 0 | 0 | 0 | 0 | 95.3% | 93.8% | 95.7% | 103% | 102% | 95.9% | 103% | 99.2% | 97.9% | 102% | 103% | 105% | 89.9% | 91.4% | 102% | 98.4% | 99.8% | 98.9% | 107% | 96.1% | 97.1% | 106% | 105% | 84.4% | 110% | > 10 µM | > 10 µM | > 10 µM | > 10 µM | > 10 µM
CC(C)CCNC(=O)[C@H](CC(C)C)NC(=O)[C@H]1O[C@@H]1C(=O)O [loxistatin-acid] | 0 | 0 | 0 | 0 | 0 | 93.4% | 98.3% | 104% | 103% | 104% | 101% | 95.8% | 101% | 91.5% | 105% | 103% | 95.6% | 93.1% | 99% | 100% | 99.4% | 98.7% | 101% | 101% | 105% | 103% | 107% | 99.4% | 102% | 101% | > 10 µM | > 10 µM | > 10 µM | > 10 µM | > 10 µM
Nc1ccccc1NC(=O)c1ccc(CNc2nccc(-c3cccnc3)n2)cc1 [mocetinostat] | 12.5 | 13 | 9.2 | 10.4 | 13.9 | 102% | 100% | 88.9% | 44.2% | 1.1% | 102% | 89.6% | 86.8% | 40% | 17.7% | 95.6% | 100% | 102% | 64.4% | 17.7% | 98.4% | 97.2% | 100% | 64.2% | 0.3% | 95.4% | 94.7% | 78% | 43.4% | -0.1% | 0.756 µM | 0.405 µM | 1.12 µM | 1.26 µM | 0.567 µM
CCn1cc(C(=O)O)c(=O)c2ccc(C)nc21 [nalidixic-acid] | 0 | 0 | 0 | 0 | 0 | 106% | 108% | 90% | 102% | 95.6% | 96.8% | 89% | 100% | 93% | 102% | 96.3% | 94.4% | 93.2% | 99.9% | 96.8% | 100% | 95.8% | 100% | 98.3% | 104% | 113% | 107% | 104% | 101% | 89.4% | > 10 µM | > 10 µM | > 10 µM | > 10 µM | > 10 µM
CC(C)NCC(O)c1ccc([N+](=O)[O-])cc1 (stereo not given) [nifenalol] | 0 | 0 | 0 | 0 | 0 | 98.3% | 101% | 103% | 108% | 106% | 101% | 96.8% | 103% | 98.4% | 108% | 87.2% | 99.9% | 92.7% | 85.1% | 94% | 93.8% | 100% | 102% | 99.2% | 99.7% | 107% | 106% | 102% | 93.3% | 89.6% | > 10 µM | > 10 µM | > 10 µM | > 10 µM | > 10 µM
CC1C=CC=CCCC=CC=CC=CC=CC(OC2OC(C)C(O)C(N)C2O)CC2OC(O)(CC(O)C(O)CCC(O)CC(O)CC(O)CC(=O)OC(C)C(C)C1O)CC(O)C2C(=O)O (stereo not given) [nystatin] | 0 | 0 | 0 | 0 | 0 | 96.7% | 101% | 98.7% | 96.8% | 110% | 106% | 84.5% | 94.6% | 104% | 109% | 98.4% | 98.5% | 97.4% | 97.4% | 103% | 102% | 99.3% | 99% | 102% | 104% | 92.9% | 93.6% | 94.7% | 96.1% | 107% | > 10 µM | > 10 µM | > 10 µM | > 10 µM | > 10 µM
C[C@@H](O)[C@@H]1NC(=O)[C@H](CCCCN)NC(=O)[C@@H](Cc2c[nH]c3ccccc23)NC(=O)[C@H](Cc2ccccc2)NC(=O)[C@@H](NC(=O)[C@H](N)Cc2ccccc2)CSSC[C@@H](C(=O)N[C@H](CO)[C@@H](C)O)NC1=O [octreotide] | 0 | 0 | 0 | 0 | 0 | 98.1% | 98.9% | 98.8% | 115% | 92.7% | 94.3% | 91.9% | 120% | 101% | 109% | 103% | 115% | 95.6% | 119% | 104% | 97.5% | 101% | 96% | 102% | 101% | 110% | 103% | 110% | 107% | 93% | > 10 µM | > 10 µM | > 10 µM | > 10 µM | > 10 µM
